According to PMC4071596, “Eurothiocin A and B, Sulfur-Containing Benzofurans from a Soft Coral-Derived Fungus Eurotium rubrum SH-823” (Marine Drugs, 2014):

What was measured:
α-glucosidase = α-glucosidase (Saccharomyces cerevisiae, UniProt P53341); assay: α-Glucosidase inhibitory activity assay (p-nitrophenyl-α-glucopyranoside hydrolysis, absorbance at 400 nm); assay type: biochemical; details: for type of inhibition of α-glucosidase (Lineweaver-Burk plot method): kinetic studies at increasing concentration of substrates and inhibitors
Chain of α-glucosidase (P53341 whole entry): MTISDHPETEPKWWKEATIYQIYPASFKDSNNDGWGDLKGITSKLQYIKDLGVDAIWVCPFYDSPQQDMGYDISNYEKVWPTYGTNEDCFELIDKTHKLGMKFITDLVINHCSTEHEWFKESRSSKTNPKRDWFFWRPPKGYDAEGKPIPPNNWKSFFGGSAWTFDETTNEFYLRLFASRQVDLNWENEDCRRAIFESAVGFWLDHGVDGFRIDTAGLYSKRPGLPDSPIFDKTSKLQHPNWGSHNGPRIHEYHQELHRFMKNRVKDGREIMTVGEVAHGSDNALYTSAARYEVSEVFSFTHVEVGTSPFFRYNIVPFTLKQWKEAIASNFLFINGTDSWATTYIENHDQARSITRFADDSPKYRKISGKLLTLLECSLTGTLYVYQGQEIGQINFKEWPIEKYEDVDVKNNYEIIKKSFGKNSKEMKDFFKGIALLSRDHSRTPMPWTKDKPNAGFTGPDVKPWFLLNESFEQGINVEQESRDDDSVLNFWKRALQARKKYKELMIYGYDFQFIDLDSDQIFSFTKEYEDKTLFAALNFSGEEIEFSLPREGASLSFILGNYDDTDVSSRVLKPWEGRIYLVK
Protocol: α-Glucosidase was assayed according to standard procedures by following the hydrolysis of nitrophenyl glycosides by monitoring formation of p-nitrophenol spectrometrically at 400 nm. The reaction mixture (final volume, 1 mL) consisted of the enzyme solution (20 μL, Sigma 9001-42-7, E.C 3.2.1.20), substrate (10 mM p-nitrophenyl-α-glucopyranoside, 20 μL, Fluka, BioChemika, Buchs, Switzerland) in 50 mM potassium phosphate buffer (pH 7.0) and test sample dissolved in DMSO (20 μL). The inhibitors were pre-incubated with the enzyme at 37 °C for 30 min, and the substrate was then added. The reaction was monitored spectrophotometrically by measuring the absorbance at 400 nm. […] The inhibitory activity of test compound was determined as a percentage in comparison to a blank according with the following equation: The inhibition rates (%) = [(ODcontrol − ODcontrol blank) − (ODtest − ODtest blank)]/(ODcontrol − ODcontrol blank) × 100%. The IC50 values of compounds were calculated by the nonlinear regression analysis and expressed as the mean ± SD of two distinct experiments. Kinetic parameters were determined using the Lineweaver-Burk double-reciprocal plot method at increasing concentration of substrates and inhibitors.

| Compound | type of inhibition of α-glucosidase (Lineweaver-Burk plot method) (α-glucosidase) | melting point | IC50 (α-glucosidase; mean ± SD from two independent experiments, pre-incubated with the enzyme at 37 °C for 30 min, pH 7.0) |
| --- | --- | --- | --- |
| CSC(=O)c1c(C)cc2c(c1O)CC(C(C)(C)O)O2 (stereo not shown) [Compound 1, eurothiocin A] | competitive inhibitors |  |  |
| CSC(=O)c1c(C)cc2c(c1O)CC(C(C)(O)CO)O2 (stereo not shown) [Compound 2, eurothiocin B] | competitive inhibitors | 122 to 123 °C |  |
| butyrolactone I [Compound 4] |  |  | 98.5 ± 3.3 µM |
